Read-outs that look alike come from different tables or passages of the source.
Columns and labels:
Jurkat T cells = experiment: Pro-apoptotic activity on Jurkat T cells (FITC-Annexin V / 7-AAD flow cytometry); assay type: cell-based; details: Homo sapiens, 72 hours, cells stained with FITC-Annexin V and 7-AAD among total cells
Procedure, shortened: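 Jurkat cells at 1.5×10^5 cells/mL in RPMI/10% FBS treated with compounds at […] or 5 μM final for 72 h at 37° C, vehicle containing 1% DMSO. Stained with FITC-Annexin V and 7-AAD for 15 min at room temperature in pH 7.4 Hepes binding buffer. Apoptosis = % double-stained cells by flow cytometry.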

Jurkat = experiment: Apoptosis of lymphoid malignancy cell lines (Annexin V / 7-AAD): Jurkat; assay type: cell-based; details: Homo sapiens, Acute T cell leukemia, 24 hours, read-out: Administration Dose (mean ± SD, μmol/L) Lethal Dose 50 (Apoptosis)
Protocol: (§1) Each of the acute T cell leukemia cell lines Jurkat, Molt4 and CCRF-CEM, the acute B cell leukemia cell line Raji and the […] cell lines KMS11, KMS12BM, KMS26, KMS28BM, and IM9 was re-suspended in 10% FBS-containing RPMI medium at a concentration of 1.5×10^5 cells/mL, and 200 μL of each of the cell suspensions was cultured in a flat bottom 96-well plate (Costar). The acute NK cell lymphoma cell line NK-92MI was re-suspended in α-MEM medium (supplemented with 20% FBS, 1×MEM vitamine solution, 50 μM 2-mercaptoethanol and 1× penicillin/streptomycin) at a concentration of 1.5×10^5 cells/mL, and 200 μL of the cell suspension was cultured in a flat bottom 96-well plate. The cells in each well was treated with 10 μL of each of 0.1, 0.25, 0.5, 0.75 and 1 μM of the compound diluted with RPMI medium, followed by that the cells were incubated in a 5% CO2 incubator at 37° C. for 24 hours. In a vehicle control group, cells were treated with 10 μL of medium containing 0.05% dimetylsulfoxide (DMSO, Sigma).
(§2) The cells were collected, and then the apoptosis thereof was analyzed by a flow cytometer after staining with Annexin V-7-AAD. The incubated cells were collected, placed in a 5-mL FACS tube (BD Falcon) and washed with 1 mL of fluorescence activated cell sorting (FACS) buffer (1%. FBS and 0.1% sodium azaide in PBS). The cells were re-suspended in 0.1 mL of FACS buffer, followed by that the cells were treated and stained with phycoerythrin-Annexin V at room temperature for 10 minutes. After 10 minutes of staining, the cells were treated and stained with 7-AAD at room temperature for 5 minutes. The stained cells were suspended in 0.3 mL of FACS buffer, and then analyzed by a flow cytometer. […] Thus, compounds 065, 108, 229 and 457 of the present invention can be used as a novel anti-lymphoid malignancy drug.

Molt4 = experiment: Apoptosis of lymphoid malignancy cell lines: Molt4; assay type: cell-based; details: Homo sapiens, MOLT-4; Molt4, Acute T cell leukemia, 24 hours; read-out: Administration Dose (mean ± SD, μmol/L) Lethal Dose 50 (Apoptosis)
Protocol: as §1, §2

IM9 = experiment: Apoptosis of lymphoid malignancy cell lines: IM9; assay type: cell-based; details: Homo sapiens, IM-9; IM9, Multiple myeloma, 24 hours; read-out: Administration Dose (mean ± SD, μmol/L) Lethal Dose 50 (Apoptosis)
Protocol: as §1, §2

KMS11 = experiment: Apoptosis of lymphoid malignancy cell lines: KMS11; assay type: cell-based; details: Homo sapiens, KMS-11; KMS11, Multiple myeloma, 24 hours; read-out: Administration Dose (mean ± SD, μmol/L) Lethal Dose 50 (Apoptosis)
Protocol: as §1, with “In a vehicle control group, cells were treated with 10 μL of medium containing 0.05% dimetylsulfoxide (DMSO, Sigma).” left out
(§3) The cells were collected, and then the apoptosis thereof was analyzed by a flow cytometer after staining with Annexin V-7-AAD. The incubated cells were collected, placed in a 5-mL FACS tube (BD Falcon) and washed with 1 mL of fluorescence activated cell sorting (FACS) buffer (1%. FBS and 0.1% sodium azaide in PBS). […] The stained cells were suspended in 0.3 mL of FACS buffer, and then analyzed by a flow cytometer. […]

KMS12BM = experiment: Apoptosis of lymphoid malignancy cell lines: KMS12BM; assay type: cell-based; details: Homo sapiens, KMS-12-BM, Multiple myeloma, 24 hours, read-out: Administration Dose (mean ± SD, μmol/L) Lethal Dose 50 (Apoptosis)
Protocol: as §1, with “In a vehicle control group, cells were treated with 10 μL of medium containing 0.05% dimetylsulfoxide (DMSO, Sigma).” left out
as §3

KMS26 = experiment: Apoptosis of lymphoid malignancy cell lines: KMS26; assay type: cell-based; details: KMS-26; KMS26, Multiple myeloma, 24 hours; read-out: Administration Dose (mean ± SD, μmol/L) Lethal Dose 50 (Apoptosis)
Protocol: as §1, with “In a vehicle control group, cells were treated with 10 μL of medium containing 0.05% dimetylsulfoxide (DMSO, Sigma).” left out
as §3

KMS28BM = experiment: Apoptosis of lymphoid malignancy cell lines: KMS28BM; assay type: cell-based; details: KMS-28BM, Multiple myeloma, 24 hours, read-out: Administration Dose (mean ± SD, μmol/L) Lethal Dose 50 (Apoptosis)
Protocol: as §1, with “In a vehicle control group, cells were treated with 10 μL of medium containing 0.05% dimetylsulfoxide (DMSO, Sigma).” left out
as §3

CCRF-CEM = experiment: Apoptosis of lymphoid malignancy cell lines: CCRF-CEM; assay type: cell-based; details: Homo sapiens, Acute T cell leukemia, 24 hours, read-out: Administration Dose (mean ± SD, μmol/L) Lethal Dose 50 (Apoptosis)
Protocol: as §1, with “In a vehicle control group, cells were treated with 10 μL of medium containing 0.05% dimetylsulfoxide (DMSO, Sigma).” left out
as §3

Raji = experiment: Apoptosis of lymphoid malignancy cell lines: Raji; assay type: cell-based; details: Homo sapiens, Acute B cell leukemia, 24 hours, read-out: Administration Dose (mean ± SD, μmol/L) Lethal Dose 50 (Apoptosis)
Protocol: as §1, with “In a vehicle control group, cells were treated with 10 μL of medium containing 0.05% dimetylsulfoxide (DMSO, Sigma).” left out
as §3

NK-92MI = experiment: Apoptosis of lymphoid malignancy cell lines: NK-92MI; assay type: cell-based; details: Acute NK cell lymphoma, 24 hours, read-out: Administration Dose (mean ± SD, μmol/L) Lethal Dose 50 (Apoptosis)
Protocol: as §1, with “In a vehicle control group, cells were treated with 10 μL of medium containing 0.05% dimetylsulfoxide (DMSO, Sigma).” left out
as §3

[1] = test system: Experimental Autoimmune Encephalomyelitis (EAE); experiment: Experimental Autoimmune Encephalomyelitis (EAE) model of multiple sclerosis; assay type: in vivo, mouse; details: 1 mg/kg orally daily from 17 to 37 days
Protocol: At the first day of induction, myelin oligodendrocyte glycoprotein35-55 (MOG35-55, Peptron) (200 ug), mycobacterium tuberculosis (Difco, Cat No. 231141) (500 μg) and complete Freund's adjuvant (Sigma Aldrich, Cat No. F5506) were mixed with each other and immersed for 5 minutes. 0.1 mL of the immersed peptide was injected subcutaneously into both the flanks of each of C57BL/6 mice (9 week old, female, 18±2 g), followed by that […] pertussis toxin (Sigma Aldrich, Cat No. P2980) (200 ng) was injected by intravenously. At 2 days, the same amount of pertussis toxin was administered intravenously. Whether the immersion leaked from the injected portion of the mice was checked, and whether EAE was induced was also examined by visual observation from 7 days.
Compound 229 and Fingolimod that is currently clinically used for the treatment of multiple sclerosis were completely dissolved in a Cremophor EL-ethanol mixture (1:1, v/v) in an amount corresponding to 7.5% (v/v) of the administration volume, and the compound solution was diluted in PBS. The two groups of the mice were administered orally with 200 μL of the diluted solution of compound 229 at each doses of 25 and 50 mg/kg separately, and the third group of the mice was administered orally with 200 μL of the diluted solution of fingolimode at a dose of 1 mg/kg on a daily basis from 17 days to 37 days (for total 21 times) after starting of the experiment. In a vehicle control group, 200 μL of a Cremophor EL-ethanol-PBS mixture (3.75:3.75:92.5, v/v/v) was administered to each mouse in the same manner as the treated group. The index of EAE was recorded daily based on visual observation using a severity index system (6-point (0 to 5) scale) from 7 days of the experiment. The symptoms of multiple sclerosis were evaluated based on the following criteria:
2: limp tail and hind limb weakness;
4: hind limb paralysis and forelimb weakness; and […]

[2] = test system: acute graft-versus-host disease; experiment: Acute graft-versus-host disease, mouse model of allogeneic bone marrow transplantation; assay type: in vivo; details: 25 mg/kg intraperitoneally daily for 10 days
Description: Lymph nodes, spleens, both femurs and tibias were aseptically collected from normal C57BL/6 mice (8-12 week old, female, 20-23 g), and T cells were isolated from the lymph nodes and spleens in the same manner as described in Experimental Example 2 and were re-suspended in PBS at a concentration of 8×10^7 cells/mL. The femurs and tibias were cut at the ends, and the bone marrow was flushed from femurs and tibias with RPMI medium using a syringe (21G for femur and 26G for tibia) to extract the marrow, which was then suspended and passed through a cell strainer to make a single cell suspension. The bone marrow cell suspension was centrifuged at 1200 rpm for 5 minutes, and the supernatant was removed, then the cells were added to 1 mL of ACK lysis buffer and vortexed for 1 minute, followed by washing with RPMI medium. […] The incubated cell suspension was added with 5 mL of MACS buffer, centrifuged for 5 minutes, washed, and then re-suspended in 2 mL of MACS buffer. The suspended cells were placed in the autoMACS Pro Separator, and T cells bound to the CD90.2 microbeads were removed. The separated T cell-depleted bone marrow cells (TCD-BM) were washed with PBS and re-suspended in PBS at a concentration of 1×10^8 cells/mL. Normal BDF1 mice (10-12 week old, female, 20-23 g) were irradiated with 850 rad of γ radiation using an irradiator, and then 100 μL of a graft obtained by mixing the C57BL/6 mouse T cells and the TCD-BM at a ratio of 1:1 was injected into the tail vein of the BDF1 mice. In a group treated with compound 229 of the present invention, compound 229 was completely dissolved in a Cremophor EL-ethanol mixture (1:1, v/v) in an amount corresponding to 15% (v/v) of the administration volume, after which the compound solution was diluted in PBS, and the dilution was administered intraperitoneally to each mouse at a dose of 25 mg/kg daily for 10 days from the day of the graft injection. Meanwhile, Tacrolimus that is a currently clinically used immunosuppressive agent was administered to mice of another group in the same amount as compound 229 in order to compare the inhibitory effect on acute graft-versus-host disease, and mice of a vehicle control group were administered with 200 μL of a Cremophor EL-ethanol-PBS (7.5:7.5:85, v/v/v) in the same manner as the treated groups. Then, the survival of mice was monitored daily, and the severity of GVHD was assessed twice a week with clinical GVHD scoring system for each a decrease in weight loss, hunched posture, decreased activity, fur ruffling and skin lesions. Each parameters were scored on a 3-point (0 to 2) scale.

[3] = read-out: Cell Apoptosis Effect to Jurkat T Cell (% in 5 μM)

## Cc1cc(C)c(OCC(=O)N/N=C/c2cccc3[nH]ccc23)c(C)c1 [Compound 065, (E)-N′-((1H-indol-4-yl)methylene)-2-(mesityloxy)acetohydrazide]
Jurkat T cells; [3]
  cytotoxicity at 5 µM: 100%
Jurkat
  EC50: 0.79 ± 0.01 µmol/L
Molt4
  EC50: 1.58 ± 0.03 µmol/L
IM9
  EC50: 1.21 ± 0.01 µmol/L

## Cc1cc(C)c(OCC(=O)N/N=C/c2ccc3cc[nH]c3c2)c(C)c1 [Compound 108, (E)-N′-((1H-indol-6-yl)methylene)-2-(mesityloxy)acetohydrazide]
Jurkat T cells; [3]
  cytotoxicity at 5 µM: 100%
Jurkat
  EC50: 0.78 ± 0.04 µmol/L
Molt4
  EC50: 1.38 ± 0.04 µmol/L
IM9
  EC50: 1.41 ± 0.03 µmol/L

## Cc1cc(F)cc(C2CCOC2)c1OCC(=O)N(C)/N=C/c1ccc2ccn(C)c2c1 (centres unmarked) [Compound 380, (E)-2-(4-fluoro-2-methyl-6-(tetrahydrofuran-3-yl)phenoxy)-N-methyl-N′-((1-methyl-1H-indol-6-yl)methylene)acetohydrazide]
Jurkat T cells; read-out: Jurkat T Cell Apoptosis (% in 5 μM)
  cytotoxicity at 5 µM: 100%

## Cc1cc(C)c(OCC(=O)N/N=C/c2ccc3cc[nH]c3c2)c(C2CCOCC2)c1 [Compound 457, (E)-N′-((1H-indol-6-yl)methylene)-2-(2,4-dimethyl-6-(tetrahydro-2H-pyran-4-yl)phenoxy)acetohydrazide]
Jurkat T cells; [3]
  cytotoxicity at 5 µM: 100%
Jurkat
  EC50: 0.2 ± 0.01 µmol/L
Molt4
  EC50: 0.25 ± 0.11 µmol/L
IM9
  EC50: 0.38 ± 0.01 µmol/L
KMS11
  EC50: 0.63 ± 0.31 µmol/L
KMS12BM
  EC50: 0.22 ± 0.02 µmol/L
KMS26
  EC50: 0.55 ± 0.12 µmol/L
KMS28BM
  EC50: 0.47 ± 0.06 µmol/L
CCRF-CEM
  EC50: 0.17 µmol/L
Raji
  EC50: 0.68 ± 0.05 µmol/L
NK-92MI
  EC50: 0.46 ± 0.01 µmol/L

## CCCCCCCCc1ccc(CCC(N)(CO)CO)cc1 [Fingolimod, reference compound]
[1]; at 17 days (start of administration)
  severity index (EAE, 0 to 5 scale): 3±1
[1]; at 39 days, vehicle 2.5±0.75
  severity index (EAE, 0 to 5 scale): 1.5±0.5
[1]; at 101 days, vehicle 2.33±0.25
  severity index (EAE, 0 to 5 scale): 2.7±0.25

## C=CC[C@@H]1/C=C(\C)C[C@H](C)C[C@H](OC)[C@H]2O[C@@](O)(C(=O)C(=O)N3CCCC[C@H]3C(=O)O[C@H](/C(C)=C/[C@@H]3CC[C@@H](O)[C@H](OC)C3)[C@H](C)[C@@H](O)CC1=O)[C@H](C)C[C@@H]2OC [Tacrolimus, reference compound]
[2]
  severity of GVHD (clinical scoring system): ruffled fur and severe skin lesions
[2]; final (day 70), vehicle 10%
  survival rate: 50%
[2]; vehicle from 29 days
  mouse death, days after cell transplantation: ≥ 23 days

Reference: patent US9447083B2, “N-acylhydrazone derivatives for selective T cell inhibitor and anti-lymphoid malignancy drug” (CHONG KUN DANG PHARMACEUTICAL CORP., priority 2012, dated 2016)
